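Where inhibition never reached the appropriate level, the endpoint shown equals the highest concentration tested. Otherwise, values were interpolated linearly from a five-concentration, 48-hour dose response in 96-well plates. TGI marks complete inhibition of growth.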
What was measured:
Assay in all cases: NCI-60 cell line screen, 48 h
KM12 colon = tested on: KM12 colon
DU-145 prostate = tested on: DU-145 prostate
BT-549 breast = tested on: BT-549 breast
CAKI-1 renal = tested on: CAKI-1 renal
HOP-92 NSCLC = tested on: HOP-92 NSCLC
OVCAR-5 ovarian = tested on: OVCAR-5 ovarian
T-47D breast = tested on: T-47D breast
A549 NSCLC = tested on: A549 NSCLC
MCF7 breast = tested on: MCF7 breast
NCI-H23 lung = tested on: NCI-H23 lung
EKVX NSCLC = tested on: EKVX NSCLC
SK-OV-3 ovarian = tested on: SK-OV-3 ovarian
SF-295 CNS = tested on: SF-295 CNS
PC-3 prostate = tested on: PC-3 prostate
HCT-116 colon = tested on: HCT-116 colon
UO-31 renal = tested on: UO-31 renal
M14 melanoma = tested on: M14 melanoma
SK-MEL-2 melanoma = tested on: SK-MEL-2 melanoma
SK-MEL-5 melanoma = tested on: SK-MEL-5 melanoma

**Q.** How did the TGI (KM12 colon) turn out when `CC1(C)CCCC2(C)C3=C(CCC12)C(=O)OC3` (stereo unspecified) was run?
**A.** The TGI was greater than 100 µM.

**Q.** And the TGI (DU-145 prostate)?
**A.** Its TGI is greater than 100 µM.

**Q.** And the TGI (BT-549 breast)?
**A.** The TGI was greater than 100 µM.

**Q.** What about the TGI (CAKI-1 renal) of the same compound?
**A.** The TGI was greater than 100 µM.

**Q.** And the TGI (HOP-92 NSCLC)?
**A.** Its TGI is greater than 100 µM.

**Q.** What about the TGI (OVCAR-5 ovarian) of the same compound?
**A.** The TGI was greater than 100 µM.

**Q.** And the TGI (T-47D breast)?
**A.** Its TGI is greater than 100 µM.

**Q.** What about the TGI (A549 NSCLC) of the same compound?
**A.** Its TGI is greater than 100 µM.

**Q.** And the TGI (MCF7 breast)?
**A.** Its TGI is greater than 100 µM.

**Q.** What about the TGI (NCI-H23 lung) of the same compound?
**A.** The TGI was greater than 100 µM.

**Q.** What about the TGI (EKVX NSCLC) of the same compound?
**A.** Its TGI is greater than 100 µM.

**Q.** And the TGI (SK-OV-3 ovarian)?
**A.** Its TGI is greater than 100 µM.

**Q.** What about the TGI (SF-295 CNS) of the same compound?
**A.** The TGI was greater than 100 µM.

**Q.** And the TGI (PC-3 prostate)?
**A.** Its TGI is greater than 100 µM.

**Q.** What about the TGI (HCT-116 colon) of the same compound?
**A.** The TGI was greater than 100 µM.

**Q.** What about the TGI (UO-31 renal) of the same compound?
**A.** The TGI was greater than 100 µM.

**Q.** What about the TGI (M14 melanoma) of the same compound?
**A.** The TGI was greater than 100 µM.

**Q.** And the TGI (SK-MEL-2 melanoma)?
**A.** The TGI was greater than 100 µM.

**Q.** And the TGI (SK-MEL-5 melanoma)?
**A.** Its TGI is greater than 100 µM.

**Q.** Which results are given for `Nc1c(C(=O)c2ccc(Cl)cc2)[nH]c(Nc2ccc(Cl)cc2)c1C(=S)Nc1ccccc1`?
**A.** TGI (KM12 colon): 31.5 µM; TGI (DU-145 prostate): 24.1 µM; TGI (BT-549 breast): 8.02 µM; TGI (CAKI-1 renal): 23.2 µM; TGI (HOP-92 NSCLC): 22.2 µM; TGI (OVCAR-5 ovarian): 27.3 µM; TGI (T-47D breast): > 100 µM; TGI (A549 NSCLC): 13.9 µM; TGI (MCF7 breast): 21.6 µM; TGI (NCI-H23 lung): 11.9 µM; TGI (EKVX NSCLC): 19.5 µM; TGI (SK-OV-3 ovarian): 19.3 µM; TGI (SF-295 CNS): 5.87 µM; TGI (PC-3 prostate): 41.2 µM; TGI (HCT-116 colon): 13.4 µM; TGI (UO-31 renal): 15.1 µM; TGI (M14 melanoma): 34.1 µM; TGI (SK-MEL-2 melanoma): 25.8 µM

**Q.** `CSC1=NC(=O)CCN1C1OCC(OC(C)=O)C(OC(C)=O)C1OC(C)=O` (stereo unspecified) was tested. Which TGI (KM12 colon) did it give?
**A.** The TGI was greater than 31.6 µM.

**Q.** What about the TGI (DU-145 prostate) of the same compound?
**A.** The TGI was greater than 31.6 µM.

**Q.** And the TGI (BT-549 breast)?
**A.** Its TGI is 25 µM.

**Q.** What about the TGI (CAKI-1 renal) of the same compound?
**A.** The TGI was greater than 31.6 µM.

**Q.** And the TGI (HOP-92 NSCLC)?
**A.** Its TGI is 27 µM.

**Q.** And the TGI (OVCAR-5 ovarian)?
**A.** The TGI was greater than 31.6 µM.

**Q.** What about the TGI (T-47D breast) of the same compound?
**A.** The TGI was greater than 31.6 µM.

**Q.** And the TGI (A549 NSCLC)?
**A.** Its TGI is greater than 31.6 µM.

**Q.** What about the TGI (MCF7 breast) of the same compound?
**A.** Its TGI is greater than 100 µM.

**Q.** What about the TGI (NCI-H23 lung) of the same compound?
**A.** The TGI was greater than 31.6 µM.

**Q.** And the TGI (EKVX NSCLC)?
**A.** The TGI was greater than 31.6 µM.

**Q.** And the TGI (SK-OV-3 ovarian)?
**A.** Its TGI is 29.5 µM.

**Q.** And the TGI (SF-295 CNS)?
**A.** Its TGI is greater than 31.6 µM.

**Q.** What about the TGI (PC-3 prostate) of the same compound?
**A.** Its TGI is greater than 31.6 µM.

**Q.** What about the TGI (HCT-116 colon) of the same compound?
**A.** The TGI was greater than 31.6 µM.

**Q.** What about the TGI (UO-31 renal) of the same compound?
**A.** Its TGI is 57.8 µM.

**Q.** And the TGI (SK-MEL-2 melanoma)?
**A.** Its TGI is 22.9 µM.

**Q.** And the TGI (SK-MEL-5 melanoma)?
**A.** Its TGI is 17.9 µM.

**Q.** How did the TGI (KM12 colon) turn out when `C[C@]12CCC(=O)C=C1CC[C@@H]1[C@@H]2CC[C@]2(C)C(=O)/C(=C/c3ccncc3)C[C@@H]12` was run?
**A.** The TGI was 38.3 µM.

**Q.** What about the TGI (DU-145 prostate) of the same compound?
**A.** The TGI was 29.2 µM.

**Q.** What about the TGI (BT-549 breast) of the same compound?
**A.** Its TGI is 42.5 µM.

**Q.** And the TGI (CAKI-1 renal)?
**A.** Its TGI is 43.7 µM.

**Q.** And the TGI (HOP-92 NSCLC)?
**A.** Its TGI is 42.8 µM.

**Q.** And the TGI (OVCAR-5 ovarian)?
**A.** Its TGI is 34.2 µM.

**Q.** What about the TGI (T-47D breast) of the same compound?
**A.** Its TGI is 66 µM.

**Q.** What about the TGI (A549 NSCLC) of the same compound?
**A.** The TGI was 46.5 µM.

**Q.** What about the TGI (MCF7 breast) of the same compound?
**A.** Its TGI is 24.1 µM.

**Q.** And the TGI (NCI-H23 lung)?
**A.** Its TGI is 56.2 µM.

**Q.** And the TGI (EKVX NSCLC)?
**A.** Its TGI is 35.6 µM.

**Q.** What about the TGI (SK-OV-3 ovarian) of the same compound?
**A.** The TGI was 56.7 µM.

**Q.** What about the TGI (SF-295 CNS) of the same compound?
**A.** The TGI was 36.1 µM.

**Q.** What about the TGI (PC-3 prostate) of the same compound?
**A.** Its TGI is 25.6 µM.

**Q.** What about the TGI (HCT-116 colon) of the same compound?
**A.** The TGI was 23 µM.

**Q.** And the TGI (UO-31 renal)?
**A.** The TGI was 26.6 µM.

**Q.** What about the TGI (M14 melanoma) of the same compound?
**A.** The TGI was 29.4 µM.

**Q.** What about the TGI (SK-MEL-2 melanoma) of the same compound?
**A.** Its TGI is 28.9 µM.

**Q.** And the TGI (SK-MEL-5 melanoma)?
**A.** Its TGI is 22.1 µM.

**Q.** For `CCOC(=O)c1ccc(OCc2nc3cc(C(F)(F)F)ccc3nc2-c2ccccc2)cc1`, which TGI (KM12 colon) is on record?
**A.** The TGI was greater than 100 µM.

**Q.** What about the TGI (DU-145 prostate) of the same compound?
**A.** Its TGI is greater than 100 µM.

**Q.** And the TGI (BT-549 breast)?
**A.** Its TGI is greater than 100 µM.

**Q.** What about the TGI (CAKI-1 renal) of the same compound?
**A.** The TGI was greater than 100 µM.

**Q.** And the TGI (HOP-92 NSCLC)?
**A.** Its TGI is greater than 100 µM.

**Q.** What about the TGI (OVCAR-5 ovarian) of the same compound?
**A.** The TGI was greater than 100 µM.

**Q.** What about the TGI (T-47D breast) of the same compound?
**A.** Its TGI is greater than 100 µM.

**Q.** And the TGI (A549 NSCLC)?
**A.** Its TGI is greater than 100 µM.

**Q.** What about the TGI (MCF7 breast) of the same compound?
**A.** Its TGI is greater than 100 µM.

**Q.** And the TGI (NCI-H23 lung)?
**A.** Its TGI is greater than 100 µM.

**Q.** What about the TGI (EKVX NSCLC) of the same compound?
**A.** Its TGI is greater than 100 µM.

**Q.** What about the TGI (SF-295 CNS) of the same compound?
**A.** Its TGI is greater than 100 µM.

**Q.** And the TGI (PC-3 prostate)?
**A.** Its TGI is greater than 100 µM.

**Q.** And the TGI (HCT-116 colon)?
**A.** Its TGI is greater than 100 µM.

**Q.** What about the TGI (UO-31 renal) of the same compound?
**A.** The TGI was greater than 100 µM.

**Q.** What about the TGI (M14 melanoma) of the same compound?
**A.** The TGI was greater than 100 µM.

**Q.** And the TGI (SK-MEL-2 melanoma)?
**A.** The TGI was greater than 100 µM.

**Q.** And the TGI (SK-MEL-5 melanoma)?
**A.** Its TGI is greater than 100 µM.

**Q.** For `O=C1C(=Cc2cccc(Cl)c2)N=C(c2ccccc2)N1n1c(-c2ccccc2)nc2ccccc2c1=O`, which TGI (KM12 colon) is on record?
**A.** Its TGI is greater than 100 µM.

**Q.** What about the TGI (DU-145 prostate) of the same compound?
**A.** Its TGI is greater than 100 µM.

**Q.** And the TGI (BT-549 breast)?
**A.** The TGI was greater than 100 µM.

**Q.** What about the TGI (CAKI-1 renal) of the same compound?
**A.** Its TGI is greater than 100 µM.

**Q.** And the TGI (HOP-92 NSCLC)?
**A.** Its TGI is 81.4 µM.

**Q.** What about the TGI (OVCAR-5 ovarian) of the same compound?
**A.** The TGI was greater than 100 µM.

**Q.** What about the TGI (T-47D breast) of the same compound?
**A.** The TGI was greater than 100 µM.

**Q.** What about the TGI (A549 NSCLC) of the same compound?
**A.** The TGI was greater than 100 µM.

**Q.** And the TGI (MCF7 breast)?
**A.** Its TGI is greater than 100 µM.

**Q.** What about the TGI (NCI-H23 lung) of the same compound?
**A.** Its TGI is 68.6 µM.

**Q.** What about the TGI (EKVX NSCLC) of the same compound?
**A.** The TGI was greater than 100 µM.

**Q.** What about the TGI (SK-OV-3 ovarian) of the same compound?
**A.** The TGI was greater than 100 µM.

**Q.** What about the TGI (SF-295 CNS) of the same compound?
**A.** The TGI was greater than 100 µM.

**Q.** What about the TGI (PC-3 prostate) of the same compound?
**A.** Its TGI is greater than 100 µM.

**Q.** And the TGI (HCT-116 colon)?
**A.** Its TGI is greater than 100 µM.

**Q.** What about the TGI (UO-31 renal) of the same compound?
**A.** The TGI was greater than 100 µM.

**Q.** And the TGI (M14 melanoma)?
**A.** The TGI was 54.5 µM.

**Q.** And the TGI (SK-MEL-2 melanoma)?
**A.** Its TGI is greater than 100 µM.

**Q.** And the TGI (SK-MEL-5 melanoma)?
**A.** Its TGI is greater than 100 µM.

From PubChem BioAssay (NCI)
